How the values were obtained:
Assay in all cases: radiometric filter-binding kinase assay, Kinase HotSpot
Conditions in all cases: compound 0.5 µM; ATP 10 µM
INSR (human) = INSR (human) (UniProt P06213)
LIMK1 (human) = LIMK1 (human) (UniProt P53667)
PTK6 (human) = PTK6 (human) (UniProt Q13882)
PRKCI (human) = PRKCI (human) (UniProt P41743)
BRSK2 (human) = BRSK2 (human) (UniProt Q8IWQ3)
RPS6KA3 KD1 KD2 (human) = RPS6KA3 KD1 KD2 (human) (UniProt P51812)
CAMKK1 (human) = CAMKK1 (human) (UniProt Q8N5S9)
MARK4 (human) = MARK4 (human) (UniProt Q96L34)
BMX (human) = BMX (human) (UniProt P51813)
NUAK1 (human) = NUAK1 (human) (UniProt O60285)
CDK2 CCNE1 (human) = CDK2 CCNE1 (human) (UniProt P24941+P24864)
PRKD1 (human) = PRKD1 (human) (UniProt Q15139)
EPHA3 (human) = EPHA3 (human) (UniProt P29320)
PNCK (human) = PNCK (human) (UniProt Q6P2M8)
DCLK2 (human) = DCLK2 (human) (UniProt Q8N568)
WNK3 (human) = WNK3 (human) (UniProt Q9BYP7)
Sequence of WNK3 (human) (Q9BYP7 whole entry, looked up): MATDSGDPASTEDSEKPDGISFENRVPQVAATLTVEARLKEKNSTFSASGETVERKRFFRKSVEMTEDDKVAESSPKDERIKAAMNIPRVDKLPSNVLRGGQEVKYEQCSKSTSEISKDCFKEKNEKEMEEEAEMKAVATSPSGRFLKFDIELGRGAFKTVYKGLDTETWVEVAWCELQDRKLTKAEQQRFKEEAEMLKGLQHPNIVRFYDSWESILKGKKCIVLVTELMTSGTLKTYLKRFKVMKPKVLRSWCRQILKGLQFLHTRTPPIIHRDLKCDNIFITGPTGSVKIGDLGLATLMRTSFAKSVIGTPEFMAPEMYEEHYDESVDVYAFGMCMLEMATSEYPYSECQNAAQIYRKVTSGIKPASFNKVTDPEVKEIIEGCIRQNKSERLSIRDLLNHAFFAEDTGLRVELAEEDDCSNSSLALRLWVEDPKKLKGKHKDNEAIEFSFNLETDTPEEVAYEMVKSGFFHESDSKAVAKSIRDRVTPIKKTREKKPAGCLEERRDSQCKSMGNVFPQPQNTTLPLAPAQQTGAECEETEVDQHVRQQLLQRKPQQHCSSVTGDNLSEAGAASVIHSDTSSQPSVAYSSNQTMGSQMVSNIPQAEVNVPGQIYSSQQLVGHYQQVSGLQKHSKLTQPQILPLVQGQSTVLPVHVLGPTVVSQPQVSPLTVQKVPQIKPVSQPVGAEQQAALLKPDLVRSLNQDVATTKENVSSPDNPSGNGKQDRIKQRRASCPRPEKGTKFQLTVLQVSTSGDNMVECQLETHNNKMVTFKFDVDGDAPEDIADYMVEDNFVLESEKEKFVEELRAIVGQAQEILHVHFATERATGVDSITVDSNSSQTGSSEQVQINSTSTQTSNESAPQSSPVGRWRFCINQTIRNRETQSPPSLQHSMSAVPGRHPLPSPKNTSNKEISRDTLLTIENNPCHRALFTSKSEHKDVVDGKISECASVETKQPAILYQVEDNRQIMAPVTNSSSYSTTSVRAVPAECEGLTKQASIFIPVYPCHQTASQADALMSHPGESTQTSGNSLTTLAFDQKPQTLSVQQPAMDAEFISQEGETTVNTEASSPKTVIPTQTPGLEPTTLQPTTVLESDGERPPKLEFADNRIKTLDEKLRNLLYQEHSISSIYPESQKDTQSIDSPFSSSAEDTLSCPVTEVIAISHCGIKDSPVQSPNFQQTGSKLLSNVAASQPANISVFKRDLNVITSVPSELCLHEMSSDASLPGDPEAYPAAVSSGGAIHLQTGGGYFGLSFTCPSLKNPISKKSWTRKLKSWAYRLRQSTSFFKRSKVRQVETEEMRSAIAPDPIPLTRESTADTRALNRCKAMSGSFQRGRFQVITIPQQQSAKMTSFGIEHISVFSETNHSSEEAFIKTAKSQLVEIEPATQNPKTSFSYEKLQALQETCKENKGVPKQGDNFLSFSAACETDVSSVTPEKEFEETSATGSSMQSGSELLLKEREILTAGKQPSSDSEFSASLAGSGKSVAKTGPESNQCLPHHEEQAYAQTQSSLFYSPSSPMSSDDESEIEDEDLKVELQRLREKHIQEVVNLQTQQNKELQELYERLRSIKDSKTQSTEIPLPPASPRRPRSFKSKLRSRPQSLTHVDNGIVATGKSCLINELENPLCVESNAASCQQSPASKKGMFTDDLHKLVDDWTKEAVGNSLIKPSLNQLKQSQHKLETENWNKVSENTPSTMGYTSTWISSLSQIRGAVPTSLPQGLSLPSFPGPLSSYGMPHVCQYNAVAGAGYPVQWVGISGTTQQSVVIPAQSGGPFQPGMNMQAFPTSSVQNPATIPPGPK

WNK2 (human) = WNK2 (human) (UniProt Q9Y3S1)
EPHA4 (human) = EPHA4 (human) (UniProt P54764)
PIM3 (human) = PIM3 (human) (UniProt Q86V86)
GRK6 (human) = GRK6 (human) (UniProt P43250)
Sequence of GRK6 (human) (P43250 whole entry, looked up): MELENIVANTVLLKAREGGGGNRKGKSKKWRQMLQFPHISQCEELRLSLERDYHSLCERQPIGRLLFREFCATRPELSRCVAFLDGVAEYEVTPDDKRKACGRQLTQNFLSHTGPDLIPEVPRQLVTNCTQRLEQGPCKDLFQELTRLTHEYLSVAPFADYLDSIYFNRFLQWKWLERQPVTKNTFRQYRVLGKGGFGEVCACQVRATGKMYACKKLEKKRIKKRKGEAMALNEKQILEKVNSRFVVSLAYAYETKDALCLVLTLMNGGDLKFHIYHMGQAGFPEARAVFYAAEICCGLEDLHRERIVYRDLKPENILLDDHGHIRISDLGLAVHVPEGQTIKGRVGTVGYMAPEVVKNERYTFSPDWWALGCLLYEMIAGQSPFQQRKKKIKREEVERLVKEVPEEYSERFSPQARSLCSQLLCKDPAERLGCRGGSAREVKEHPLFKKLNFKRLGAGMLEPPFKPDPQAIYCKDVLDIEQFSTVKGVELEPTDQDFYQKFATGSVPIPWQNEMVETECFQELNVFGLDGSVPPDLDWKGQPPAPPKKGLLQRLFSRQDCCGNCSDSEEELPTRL

EPHB1 (human) = EPHB1 (human) (UniProt P54762)
DYRK4 (human) = DYRK4 (human) (UniProt Q9NR20)
KDR (human) = KDR (human) (UniProt P35968)
SYK (human) = SYK (human) (UniProt P43405)
ACVR1 (human) = ACVR1 (human) (UniProt Q04771)
Sequence of ACVR1 (human) (Q04771 whole entry, looked up): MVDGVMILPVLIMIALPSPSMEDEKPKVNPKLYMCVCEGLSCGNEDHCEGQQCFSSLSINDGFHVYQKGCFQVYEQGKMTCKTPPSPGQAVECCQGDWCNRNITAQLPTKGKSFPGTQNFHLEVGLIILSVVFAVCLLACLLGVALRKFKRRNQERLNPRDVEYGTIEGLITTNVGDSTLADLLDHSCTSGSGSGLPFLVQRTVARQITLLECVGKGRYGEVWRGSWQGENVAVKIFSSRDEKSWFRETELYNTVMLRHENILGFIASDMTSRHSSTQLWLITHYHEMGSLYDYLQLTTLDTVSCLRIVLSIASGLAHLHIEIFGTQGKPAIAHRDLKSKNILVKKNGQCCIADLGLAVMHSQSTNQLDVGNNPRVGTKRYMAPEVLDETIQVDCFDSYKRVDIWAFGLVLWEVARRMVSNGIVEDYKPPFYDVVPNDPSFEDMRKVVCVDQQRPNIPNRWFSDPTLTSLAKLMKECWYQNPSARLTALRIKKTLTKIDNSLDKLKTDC

FGFR3 (human) = FGFR3 (human) (UniProt P22607)
NTRK2 (human) = NTRK2 (human) (UniProt Q16620)
MAPKAPK2 (human) = MAPKAPK2 (human) (UniProt P49137)
Sequence of MAPKAPK2 (human) (P49137 whole entry, looked up): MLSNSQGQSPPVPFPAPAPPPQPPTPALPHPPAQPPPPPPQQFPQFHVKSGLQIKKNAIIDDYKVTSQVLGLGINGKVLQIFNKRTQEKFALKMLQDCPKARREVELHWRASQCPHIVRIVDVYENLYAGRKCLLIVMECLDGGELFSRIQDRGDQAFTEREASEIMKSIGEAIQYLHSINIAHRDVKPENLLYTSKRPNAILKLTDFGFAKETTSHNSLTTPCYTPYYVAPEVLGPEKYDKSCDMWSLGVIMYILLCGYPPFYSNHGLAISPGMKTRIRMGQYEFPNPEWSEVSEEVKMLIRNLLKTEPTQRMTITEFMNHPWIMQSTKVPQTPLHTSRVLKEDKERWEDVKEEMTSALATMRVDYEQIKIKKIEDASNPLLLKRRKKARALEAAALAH

DYRK1A (human) = DYRK1A (human) (UniProt Q13627)
CLK1 (human) = CLK1 (human) (UniProt P49759)
Sequence of CLK1 (human) (P49759 whole entry, looked up): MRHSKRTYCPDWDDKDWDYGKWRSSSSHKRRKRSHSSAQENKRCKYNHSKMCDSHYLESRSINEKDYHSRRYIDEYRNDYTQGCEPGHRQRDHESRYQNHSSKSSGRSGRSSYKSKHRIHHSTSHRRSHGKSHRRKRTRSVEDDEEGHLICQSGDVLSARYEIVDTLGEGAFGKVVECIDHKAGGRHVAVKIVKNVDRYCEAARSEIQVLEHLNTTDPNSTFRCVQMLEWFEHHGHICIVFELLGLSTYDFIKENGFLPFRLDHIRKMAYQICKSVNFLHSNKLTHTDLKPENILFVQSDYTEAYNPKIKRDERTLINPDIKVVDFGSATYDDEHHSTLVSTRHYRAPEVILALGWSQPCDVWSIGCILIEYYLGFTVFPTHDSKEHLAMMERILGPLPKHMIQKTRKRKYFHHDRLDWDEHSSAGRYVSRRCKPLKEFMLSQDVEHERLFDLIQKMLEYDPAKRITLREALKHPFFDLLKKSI

MINK1 (human) = MINK1 (human) (UniProt Q8N4C8)
BLK (human) = BLK (human) (UniProt P51451)
EPHA2 (human) = EPHA2 (human) (UniProt P29317)
Sequence of EPHA2 (human) (P29317 whole entry, looked up): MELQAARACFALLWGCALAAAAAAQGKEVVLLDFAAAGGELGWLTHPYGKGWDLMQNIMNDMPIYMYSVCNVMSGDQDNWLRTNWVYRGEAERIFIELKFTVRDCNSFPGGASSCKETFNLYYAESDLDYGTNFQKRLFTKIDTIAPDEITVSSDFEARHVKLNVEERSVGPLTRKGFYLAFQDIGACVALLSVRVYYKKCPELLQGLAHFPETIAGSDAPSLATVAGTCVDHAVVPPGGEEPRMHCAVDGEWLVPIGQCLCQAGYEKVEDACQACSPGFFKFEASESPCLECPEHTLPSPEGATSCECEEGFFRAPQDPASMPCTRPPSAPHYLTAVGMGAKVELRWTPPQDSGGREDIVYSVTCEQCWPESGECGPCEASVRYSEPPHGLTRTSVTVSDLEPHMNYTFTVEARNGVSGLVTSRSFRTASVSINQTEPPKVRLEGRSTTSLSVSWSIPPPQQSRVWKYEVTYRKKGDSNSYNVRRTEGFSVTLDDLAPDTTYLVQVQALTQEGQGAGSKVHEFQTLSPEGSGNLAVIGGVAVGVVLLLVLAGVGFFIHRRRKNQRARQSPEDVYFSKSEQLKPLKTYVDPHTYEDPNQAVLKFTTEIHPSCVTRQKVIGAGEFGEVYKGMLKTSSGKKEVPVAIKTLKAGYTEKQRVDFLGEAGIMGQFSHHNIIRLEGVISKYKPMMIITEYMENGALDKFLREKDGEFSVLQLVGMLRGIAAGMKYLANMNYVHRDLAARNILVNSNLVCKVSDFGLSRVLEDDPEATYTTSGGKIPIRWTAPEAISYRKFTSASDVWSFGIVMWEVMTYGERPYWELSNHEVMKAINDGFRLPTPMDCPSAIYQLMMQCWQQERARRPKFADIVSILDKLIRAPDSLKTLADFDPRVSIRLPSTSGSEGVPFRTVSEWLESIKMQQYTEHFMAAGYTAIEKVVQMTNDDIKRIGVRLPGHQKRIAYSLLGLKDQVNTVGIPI

PAK6 (human) = PAK6 (human) (UniProt Q9NQU5)
CAMKK2 (human) = CAMKK2 (human) (UniProt Q96RR4)
MAP3K10 (human) = MAP3K10 (human) (UniProt Q02779)
TGFBR2 (human) = TGFBR2 (human) (UniProt P37173)
AURKB (human) = AURKB (human) (UniProt Q96GD4)
MERTK (human) = MERTK (human) (UniProt Q12866)
PAK4 (human) = PAK4 (human) (UniProt O96013)
FLT3 (human) = FLT3 (human) (UniProt P36888)
FRK (human) = FRK (human) (UniProt P42685)

CCn1cnc2c(Nc3cccc(Cl)c3)nc(N[C@@H]3CCCC[C@@H]3N)nc21
residual activity (INSR (human)): 91.3% | residual activity (LIMK1 (human)): 108% | residual activity (PTK6 (human)): 82.1% | residual activity (PRKCI (human)): 99.7% | residual activity (BRSK2 (human)): 94% | residual activity (RPS6KA3 KD1 KD2 (human)): 64.1% | residual activity (CAMKK1 (human)): 107% | residual activity (MARK4 (human)): 95.5% | residual activity (BMX (human)): 90.7% | residual activity (NUAK1 (human)): 52.4% | residual activity (CDK2 CCNE1 (human)): 16.8% | residual activity (PRKD1 (human)): 90.8% | residual activity (EPHA3 (human)): 85.7% | residual activity (PNCK (human)): 98.5% | residual activity (DCLK2 (human)): 93.1% | residual activity (WNK3 (human)): 92% | residual activity (WNK2 (human)): 94.1% | residual activity (EPHA4 (human)): 78.5% | residual activity (PIM3 (human)): 34.7% | residual activity (GRK6 (human)): 99.6% | residual activity (EPHB1 (human)): 56.6% | residual activity (DYRK4 (human)): 95.1% | residual activity (KDR (human)): 96.5% | residual activity (SYK (human)): 98.4% | residual activity (ACVR1 (human)): 92.7% | residual activity (FGFR3 (human)): 90.4% | residual activity (NTRK2 (human)): 55.3% | residual activity (MAPKAPK2 (human)): 94.9% | residual activity (DYRK1A (human)): 100% | residual activity (CLK1 (human)): 89.3% | residual activity (MINK1 (human)): 95.2% | residual activity (BLK (human)): 87.1% | residual activity (EPHA2 (human)): 86.7% | residual activity (PAK6 (human)): 96.7% | residual activity (CAMKK2 (human)): 86.1% | residual activity (MAP3K10 (human)): 92.9% | residual activity (TGFBR2 (human)): 91.2% | residual activity (AURKB (human)): 98.8% | residual activity (MERTK (human)): 76.2% | residual activity (PAK4 (human)): 84.5% | residual activity (FLT3 (human)): 12.7% | residual activity (FRK (human)): 87.7%

COc1cc2ncc(-c3ccccc3)nc2cc1OC
residual activity (INSR (human)): 89.1% | residual activity (LIMK1 (human)): 77.7% | residual activity (PTK6 (human)): 80.8% | residual activity (PRKCI (human)): 82.1% | residual activity (BRSK2 (human)): 103% | residual activity (RPS6KA3 KD1 KD2 (human)): 101% | residual activity (CAMKK1 (human)): 98.9% | residual activity (MARK4 (human)): 85.3% | residual activity (BMX (human)): 92.2% | residual activity (NUAK1 (human)): 85.6% | residual activity (CDK2 CCNE1 (human)): 85.4% | residual activity (PRKD1 (human)): 93.3% | residual activity (EPHA3 (human)): 86.8% | residual activity (PNCK (human)): 98.2% | residual activity (DCLK2 (human)): 96% | residual activity (WNK3 (human)): 97.5% | residual activity (WNK2 (human)): 104% | residual activity (EPHA4 (human)): 99.3% | residual activity (PIM3 (human)): 87.4% | residual activity (GRK6 (human)): 92.8% | residual activity (EPHB1 (human)): 92.8% | residual activity (DYRK4 (human)): 112% | residual activity (KDR (human)): 85.4% | residual activity (SYK (human)): 92.5% | residual activity (ACVR1 (human)): 99.3% | residual activity (FGFR3 (human)): 96% | residual activity (NTRK2 (human)): 99.5% | residual activity (MAPKAPK2 (human)): 85.9% | residual activity (DYRK1A (human)): 97.2% | residual activity (CLK1 (human)): 102% | residual activity (MINK1 (human)): 93.5% | residual activity (BLK (human)): 103% | residual activity (EPHA2 (human)): 102% | residual activity (PAK6 (human)): 82.8% | residual activity (CAMKK2 (human)): 114% | residual activity (MAP3K10 (human)): 105% | residual activity (TGFBR2 (human)): 75% | residual activity (AURKB (human)): 74.4% | residual activity (MERTK (human)): 80% | residual activity (PAK4 (human)): 75.9% | residual activity (FLT3 (human)): 65.9% | residual activity (FRK (human)): 99.3%

CN([C@@H](Cc1ccc(OS(=O)(=O)c2cccc3cnccc23)cc1)C(=O)N1CCN(c2ccccc2)CC1)S(=O)(=O)c1cccc2cnccc12
residual activity (INSR (human)): 98.8% | residual activity (LIMK1 (human)): 104% | residual activity (PTK6 (human)): 89.7% | residual activity (PRKCI (human)): 93.8% | residual activity (BRSK2 (human)): 100% | residual activity (RPS6KA3 KD1 KD2 (human)): 98.6% | residual activity (CAMKK1 (human)): 108% | residual activity (MARK4 (human)): 98.8% | residual activity (BMX (human)): 97.4% | residual activity (NUAK1 (human)): 97.5% | residual activity (CDK2 CCNE1 (human)): 94.9% | residual activity (PRKD1 (human)): 101% | residual activity (EPHA3 (human)): 102% | residual activity (PNCK (human)): 99.7% | residual activity (DCLK2 (human)): 94.1% | residual activity (WNK3 (human)): 101% | residual activity (WNK2 (human)): 100% | residual activity (EPHA4 (human)): 95.4% | residual activity (PIM3 (human)): 113% | residual activity (GRK6 (human)): 101% | residual activity (EPHB1 (human)): 94.2% | residual activity (DYRK4 (human)): 97.8% | residual activity (KDR (human)): 100% | residual activity (SYK (human)): 98.7% | residual activity (ACVR1 (human)): 95% | residual activity (FGFR3 (human)): 98.8% | residual activity (NTRK2 (human)): 103% | residual activity (MAPKAPK2 (human)): 103% | residual activity (DYRK1A (human)): 102% | residual activity (CLK1 (human)): 97.3% | residual activity (MINK1 (human)): 98.2% | residual activity (BLK (human)): 102% | residual activity (EPHA2 (human)): 101% | residual activity (PAK6 (human)): 102% | residual activity (CAMKK2 (human)): 84.2% | residual activity (MAP3K10 (human)): 92.6% | residual activity (TGFBR2 (human)): 101% | residual activity (AURKB (human)): 104% | residual activity (MERTK (human)): 100% | residual activity (PAK4 (human)): 94.6% | residual activity (FLT3 (human)): 103% | residual activity (FRK (human)): 101%

O=C1Nc2ccccc2/C1=C1/Nc2ccccc2/C1=N\OCCC(O)CO (stereo not drawn)
residual activity (INSR (human)): 44.9% | residual activity (LIMK1 (human)): 39.5% | residual activity (PTK6 (human)): 73.3% | residual activity (PRKCI (human)): 100% | residual activity (BRSK2 (human)): 33.3% | residual activity (RPS6KA3 KD1 KD2 (human)): 18.3% | residual activity (CAMKK1 (human)): 26.2% | residual activity (MARK4 (human)): 43.5% | residual activity (BMX (human)): 40.2% | residual activity (NUAK1 (human)): 2.81% | residual activity (CDK2 CCNE1 (human)): 23.1% | residual activity (PRKD1 (human)): 72.7% | residual activity (EPHA3 (human)): 69% | residual activity (PNCK (human)): 101% | residual activity (DCLK2 (human)): 86.4% | residual activity (WNK3 (human)): 79.7% | residual activity (WNK2 (human)): 85.4% | residual activity (EPHA4 (human)): 77.9% | residual activity (PIM3 (human)): 58.5% | residual activity (GRK6 (human)): 53.1% | residual activity (EPHB1 (human)): 65.9% | residual activity (DYRK4 (human)): 100% | residual activity (KDR (human)): 56.4% | residual activity (SYK (human)): 38.6% | residual activity (ACVR1 (human)): 199% | residual activity (FGFR3 (human)): 45.8% | residual activity (NTRK2 (human)): 1.62% | residual activity (MAPKAPK2 (human)): 98.4% | residual activity (DYRK1A (human)): 82.8% | residual activity (CLK1 (human)): 36.6% | residual activity (MINK1 (human)): 21% | residual activity (BLK (human)): 39.1% | residual activity (EPHA2 (human)): 65.3% | residual activity (PAK6 (human)): 93.5% | residual activity (CAMKK2 (human)): 26% | residual activity (MAP3K10 (human)): 86.9% | residual activity (TGFBR2 (human)): 119% | residual activity (AURKB (human)): 27.4% | residual activity (MERTK (human)): 49.4% | residual activity (PAK4 (human)): 84.5% | residual activity (FLT3 (human)): 1.07% | residual activity (FRK (human)): 49.7%
